Laboratory results from patent US6805880B1, “Pharmaceutical delivery system for vitamin C and vitamin E and use of a combination of vitamin C and E for preventing or treating conditions involving oxidative stress” (Ferrosan A/S, priority 1999, dated 2004).
Read-outs that look alike come from different tables or passages of the source.

Experiments:
[1] = in vivo
Experimental: The inventors conducted a controlled trial with a formulation including both slow release vitamin C and conventional release vitamin E (250 mg AA and 91 mg α-tocopherol). 520 men and women, smokers and non-smokers, were randomised to vitamin C slow release, vitamin E, a formulation with vitamin E and slow release vitamin C, or placebo (Table 4).
In a double-masked 2×2 factorial trial, 520 smoking and non-smoking men and postmenopausal women aged 45-69 years with serum cholesterol ^35.0 […] were randomised in these four strata to receive either 182 mg of d-α-tocopheryl acetate, 500 mg of slow-release vitamin C daily, both or placebo for three years. Atherosclerotic progression was defined as linear regression slope of the mean ultrasonographically assessed common carotid intima-media thickness (IMT) over time.
(§1) The study consisted of 8-week dietary counseling and placebo lead-in phase and a 3-year double-masked phase, for which the subjects were randomly allocated to either (i) […] of d-α-tocopheryl acetate twice daily (272 IU of vitamin E a day), ii) 250 mg slow-release ascorbic acid twice daily, (iii) both d-α-tocopheryl acetate and ascorbic acid in a single tablet, or (iv) placebo only. After the double-blind 3-year period, the study is continuing for another three years as an open study. The doses were chosen on the basis of pilot and kinetic studies (13, 15). The subjects were randomised separately in four strata of approximately equal size: (1) smoking (^35 cigarettes/day) men, (2) nonsmoking men, (3) smoking postmenopausal women, and (4) nonsmoking postmenopausal women. All subjects gave a written informed consent.
Ascorbic acid was stabilised in heparin plasma with metaphosphoric acid immediately after plasma separation, and frozen at −80° C. Combined ascorbic acid and dehydroascorbic acid were determined with an HPLC method (39). Heparin plasma for α-tocopherol was extracted with ethanol and hexane and measured by a reversed phase HPLC method (15). Cholesterol and triglycerides were determined with enzymatic […] methods (30). Serum LDL cholesterol was measured based on precipitation using polyvinyl sulfate and HDL cholesterol after precipitation with magnesium chloride (30). Plasma fibrinogen concentration was determined with a clotting method (30), plasma homocysteine with an HPLC method (44), and serum ferritin by an immunoradiometric assay (Bio Rad, Quantimune, Hercules, Calif.). Dietary intake of foods and nutrients was assessed at baseline by 4-day instructed food recording. Physical activity was assessed by 12-month checked questionaire (43). Blood pressure was measured manually in sitting position after a rest of 10 minutes, three measurements at 3 minutes' intervals.

[2] = system: common carotid artery intima-media thickness; test: ASAP study: progression of common carotid atherosclerosis (slope of ultrasonographic mean CCA-IMT); type: in vivo, human; conditions: for mean adjusted 3-year change of the mean carotid artery intima-media thickness (supplement: Yes): multivariate general linear model; for OR of atherosclerotic progression: double placebo as reference; for average unadjusted increase (slope) of the mean CCA-IMT: 3 years; for treatment effect on the proportion with progression: compared with placebo
Experimental: All subjects gave a written informed consent.
The subjects came to baseline visits and were randomised. Follow-up visits were 6, 12, 18, 24, 30 and 36 months later. Supplements were given, returned tablets were counted and ultrasonographic assessment of common carotid artery (CCA) intima-media thickness (IMT) was carried out at all these seven visits.
Equipment: Two identical Biosound Phase 2 systems were used (Biosound, Indianapolis, Ind., USA) equipped with a 8-10 MHz annular array transducer, with a measurement precision of 0.03 mm (41). The scannings were videotaped with PAL S-VHS Panasonic AG 7330E VCR.
Scanning (imaging) procedure and videorecording: The ultrasonographic scanning of the common carotid arteries (CCA), the carotid bulbs and the proximal internal carotid artery (ICA) was performed after a supine rest of 10 minutes, the subject in the supine position. […] The scanning was started with a diagnostic examination of entire accessible carotid tree, to find the most severe lesions. Secondly, the site of the greatest IMT at baseline in the CCA far wall was located and scanned thoroughly. This area was scanned from three angles: anterolateral, lateral and posterolateral.
Measurement from videotapes: All IMT measurements (both baseline and follow-up) from videotapes were made at the same site and angle at all examinations of each subject, which was the site with the greatest IMT (in any angle) which was clearly visible at baseline in the far wall of in CCA below the bulb. At this location IMT was measured in diastole for a length of 10 mm (or shorter, if not visible) in one angle for the far wall. Most often this was the distal centimeter of CCA. All IMT measurements were carried out after the 36-month examination.
Ultrasound image analysis: Computer analysis of ultrasound images to measure IMT was performed with a reading station equipped with Data Translation DT 2861 video frame grabber interfaced to a Panasonic AG 7355 VCR. The Prosound software, utilising automated boundary detection, was used. IMT was determined as the average difference at on the average 100 points between intima/lumen and media/adventitia interface (42).
Construction of the main outcome variable: Atherosclerotic progression was defined a priori as the linear regression slope of the mean common carotid IMT over six or seven points of follow-up time (0, 6, 12, 18, 24, 30 and 36 months). For 34 subjects, one follow-up was missing. First, the mean CCA-IMT from the right and the left side was averaged, and then the slope was computed across time-specific means.
All study participants for whom the main outcome variable was available, were included in the statistical analysis. Analyses were according to the intention-to-treat principle. As the subjects were randomised separately in four strata (smoking men, non-smoking men, smoking women, non-smoking women), this stratification was maintained also in the statistical analysis. As the a priori power calculations were based on stratified analysis in men and women, the primary statistical analysis was done in these two strata (Table 6).
To test the consistency of results, the outcome variable, the slope of the mean CCA-IMT over all available follow-up assessments, was used both as a continuous variable in general linear models and as a dichotomous variable in logistic models. The cut-off for the dichotomisation was the median among all 225 men. […] Odds ratios were estimated as antilogarithms of coefficients and their confidence intervals (Cl) based on normality assumption of SPSS 8.0 for Windows.
Three dummy variables were constructed to indicate whether the participant was randomised to receive only vitamin E, only vitamin C or both vitamins, and these were entered jointly in logistic models. The comparisons in the linear models were between each treatment group and all other groups. […]

[3] = Experimental: as §1
[4] = men (n = 225), multivariate logistic model
[5] = women (n = 233), multivariate logistic model
[6] = female, human, in vivo, 3 years

Row | Compound | mean adjusted 3-year change of the mean carotid artery intima-media thickness (supplement: Yes) ([2]; men (n = 225)) | OR of atherosclerotic progression [2, 4] | average unadjusted increase (slope) of the mean CCA-IMT ([2]; men, placebo 0.020) | treatment effect on the proportion with progression ([2]; men) | OR of atherosclerotic progression ([2]; non-smoking men (n = 125)) | OR of atherosclerotic progression ([2]; non-smoking women (n = 123)) | OR of atherosclerotic progression ([2]; smoking men (n = 100)) | OR of atherosclerotic progression ([2]; smoking women (n = 110)) | mean adjusted 3-year change of the mean carotid artery intima-media thickness (supplement: Yes) ([2]; women (n = 233)) | OR of atherosclerotic progression [2, 5] | average unadjusted increase (slope) of the mean CCA-IMT ([2]; women, placebo 0.016) | safety of the supplements ([3]; 3 years) | drop-outs: Death ([3]; men, number of subjects) | drop-outs: Death ([3]; women, number of subjects) | also measured
1 | CC(=O)Oc1c(C)c(C)c2c(c1C)CC[C@@](C)(CCC[C@H](C)CCC[C@H](C)CCCC(C)C)O2 [Vitamin E, d-α-tocopheryl acetate] | 0.0118 mm/year | 0.56 | 0.018 mm/year | non-significant | 1.07 | 1.13 | 0.21 | 0.76 | 0.0165 mm/year | 1.05 | 0.015 mm/year | safe | 3 | 0 | mean plasma α-tocopherol concentration, after supplementation [1]: 60.1 µmol/L; mean plasma α-tocopherol concentration, initial value [1]: 31.7 µmol/L; drop-outs: Adverse event ([3]; men, number of subjects): 1; drop-outs: Severe adverse event ([3]; men, number of subjects): 1; drop-outs: Death ([3]; men, number of subjects, listed as vitamin): three; drop-outs: Adverse event ([3]; women, number of subjects): 3; drop-outs: Severe adverse event ([3]; women, number of subjects): 2
2 | O=C1O[C@H]([C@@H](O)CO)C(O)=C1O [Vitamin C, ascorbic acid] | 0.0119 mm/year | 0.44 | 0.017 mm/year | non-significant | 0.30 | 0.99 | 0.45 | 0.69 | 0.0174 mm/year | 1.08 | 0.017 mm/year | safe | 1 | 0 | change of plasma α-tocopherol (vitamin E in plasma) ([1]; female, human): 4.0%; change of plasma α-tocopherol (vitamin E in plasma) ([1]; male, human): 5.1%; mean plasma α-tocopherol concentration, after supplementation ([1]; male, human): 33.9 µmol/L; mean plasma α-tocopherol concentration, initial value ([1]; male, human): 32.3 µmol/L; effect on atherosclerotic progression ([2]; smoking men): nonsignificant trend towards protection; drop-outs: Adverse event [3, 6]: 2; drop-outs: Severe adverse event [3, 6]: 1; drop-outs: Adverse event ([3]; male, human, in vivo, 3 years): 2; drop-outs: Severe adverse event ([3]; male, human, in vivo, 3 years): 1; drop-outs: Death ([3]; men, number of subjects, listed as vitamin C): One
